# Test results published in patent US9738884B2, “Therapeutic agent for epithelial and endothelial injury” (NIHON UNIVERSITY, priority 2012, dated 2017).
# System: pulmonary edema model mice
# Test: LPS-induced pulmonary edema model mice, lung weight/body weight (Example 10, Experiment 1)
# Format: in vivo
# Details: 350 ng/body weight (g) intravenous, three hours after LPS 100 μg/body weight (g) intravenous
# From the text: FIG. 10 is a graph showing the results of Experiment 1 in Example 10 of the present application, namely, the results regarding therapeutic effects on pulmonary edema (the effect of reducing the amount of lung water). In the graph, “Control” indicates normal mice, “LPS” indicates an “LPS (lipopolysaccharide)+control peptide (SEQ ID NO: 26)” administration group, and “LPS/Peptide” indicates an “LPS (lipopolysaccharide)+therapeutic peptide (SEQ ID NO: 25)” administration group. In addition, the numerical value of the vertical axis in the graph indicates the ratio of the weight (g) of lung to the body weight (g) of each mouse (lung weight (g)/body weight (g)).
# The therapeutic effects of the peptide of the present invention on model mice with pulmonary edema, which were caused by septicemia, disseminated intravascular coagulation syndrome (DIC) or acute respiratory distress syndrome (ARDS), were confirmed. […]
# A comparison experiment was carried out on a normal mouse group (healthy mice), an “LPS (lipopolysaccharide; endotoxin)+control peptide (SEQ ID NO: 26)” administration group, and an “LPS+therapeutic peptide (SEQ ID NO: 25)” administration group (7 mice/each group). […] Thereafter, the lung was removed from the mice in each group, and the weight of each lung was measured. The ratio of the weight (g) of the lung to the body weight (g) (lung weight (g)/body weight (g)) was calculated.
sequence,measurement,value
AETVFSNMDYENSTEAVFIQDDITKKKKKK [SEQ ID NO: 25],reduction of the LPS-increased amount of lung weight,72%
